Values after ≈ are worked out from the molar mass of the structure shown.
System: Mycobacterium tuberculosis variant bovis
Assay: Antibacterial activity against Mycobacterium bovis BCG assessed as inhibition of bacterial growth incubated for 15 days by REMA method
Assay type: functional
Settings: 360 h, time 15 day

N#Cc1cc(OCCOc2ccccc2)cc(-c2ccc(C(=O)O)o2)c1
MIC99: 63 µM (≈ 22 µg/mL)
